Read-outs that look alike come from different tables or passages of the source.
Columns and labels:
[1] = test system: adult brown dog ticks (Rhipicephalus sanguineus); assay: Tick DMSO contact assay, Compound 1 with reduced dosages of amitraz, Example 16; type: in vivo
Method: Scintillation vials were treated with commercial and experimental compounds using the same procedure described in Example 12 above. The treated vials were used to determine the contact toxicity of compounds against adult brown dog ticks (Rhipicephalus sanguineus). The ticks were supplied by Ecto Services Inc. Henderson, N.C.
Unfed adult ticks were released into a metal pan and 10 living ticks were aspirated into each vial. […] Two replicates were tested for each treatment and the results were averaged. Ticks were stimulated by gently exhaling in the vials. Within the same time period, the addition of amitraz to an equal dosage of compound 1 increased mean mortality.

[2] = test system: ticks (Rhipicephalus sanguineus); assay: Study A: tick efficacy of Compound 1 spot-on formulations in dogs; type: in vivo
Method: An initial clinical study was conducted to test the efficacy of Compound 1 (3-cyano-1-(2-chloro-6-fluoro-4-trifluoromethylphenyl)-4-dichlorofluoromethylsulfinyl-5-methyl-1H-pyrazole) against ticks and fleas in various test formulations. Five test groups and an untreated control were evaluated. Each test group included six dogs. Compound was dissolved in a solvent or a combination of two or more solvents at 10% w/w. Test articles were formulated as topical spot-on solutions containing compound 1, 10% w/v in a solvent or a combination of solvents as described above. Dogs were infested with approximately 50 ticks (Rhipicephalus sanguineus) on days −1, 7, 14, 21, 28, 35 and 42. Dogs were also infested with approximately 100 fleas (Ctenocephalides felis) on days −1, 8, 15, 22, 29, 36, and 43. Treatment was applied by parting the hair and applying the formulation directly onto the skin on one spot at the midline of the neck, between the base of the skull and the shoulder blades. The dose rate of each of the topical solutions was 0.1 ml/kg (10 mg/kg) body weight. The efficacy of compound 1 in various formulations is shown Table 2 below.
Negative values indicate % increase in tick counts relative to control.

[3] = Stability of formulations comprising Compound 1, accelerated @ 50° C., HPLC; type: physicochemical; conditions: solvents or combinations of solvents in Table 1
Method: Compound 1 (3-cyano-1-(2-chloro-6-fluoro-4-trifluoromethylphenyl)-4-dichlorofluoromethylsulfinyl-5-methyl-1H-pyrazole) was dissolved in a solvent or a combination of two or more solvents at 10% w/w. The formulations thus prepared were analyzed, using HPLC, for the content of compound 1 as the initial timepoint reading. Then all formulations were placed at 50° C., and the content of compound 1 in each of them was analyzed at the timepoints of two, four, six and, in some cases, 10 weeks. […] Thus formulations of Compound 1 in the solvents/carriers identified below are shown to be sufficiently stable.

[4] = 4 h, read-out: 4 hour % Mortality Rep 1
[5] = 4 h, read-out: 4 hour % Mortality Rep 2
[6] = 4 h, read-out: 4 hour Avg. % Mortality
[7] = 24 h, read-out: 24 hour % Mortality Rep 1
[8] = 24 h, read-out: 24 hour % Mortality Rep 2
[9] = 24 h, read-out: 24 hour Avg. % Mortality
[10] = 48 h, read-out: 48 hour % Mortality Rep 1
[11] = 48 h, read-out: 48 hour % Mortality Rep 2
[12] = 48 h, read-out: 48 hour Avg. % Mortality

## Cc1ccc(/N=C/N(C)/C=N/c2ccc(C)cc2C)c(C)c1 [Amitraz, amitraz]
[1]; [4]
  mortality at 3.13 ppm: 0%
  mortality at 6.25 ppm: 0%
  mortality at 12.5 ppm: 0%
[1]; [5]
  mortality at 3.13 ppm: 0%
  mortality at 6.25 ppm: 0%
  mortality at 12.5 ppm: 0%
[1]; [6]
  mortality at 3.13 ppm: 0%
  mortality at 6.25 ppm: 0%
  mortality at 12.5 ppm: 0%
[1]; [7]
  mortality at 3.13 ppm: 0%
  mortality at 6.25 ppm: 0%
  mortality at 12.5 ppm: 0%
[1]; [8]
  mortality at 3.13 ppm: 0%
  mortality at 6.25 ppm: 0%
  mortality at 12.5 ppm: 0%
[1]; [9]
  mortality at 3.13 ppm: 0%
  mortality at 6.25 ppm: 0%
  mortality at 12.5 ppm: 0%
[1]; [10]
  mortality at 3.13 ppm: 0%
  mortality at 6.25 ppm: 0%
  mortality at 12.5 ppm: 0%
[1]; [11]
  mortality at 3.13 ppm: 0%
  mortality at 6.25 ppm: 0%
  mortality at 12.5 ppm: 0%
[1]; [12]
  mortality at 3.13 ppm: 0%
  mortality at 6.25 ppm: 0%
  mortality at 12.5 ppm: 0%

## Cc1c([S+]([O-])C(F)(Cl)Cl)c(C#N)nn1-c1c(F)cc(C(F)(F)F)cc1Cl (stereo not drawn) [Compound 1, 3-cyano-1-(2-chloro-6-fluoro-4-trifluoromethylphenyl)-4-dichlorofluoromethylsulfinyl-5-methyl-1H-pyrazole]
[2]; Day 1, Trt. Group 2: 10 mg/kg in Butyl acetate/octyl acetate
  % Efficacy against ticks: 48.6%
[2]; Day 1, Trt. Group 3: 10 mg/kg in Diethylene glycol monoethyl ether (transcutol)/N-methyl-2-pyrrolidone
  % Efficacy against ticks: 59.0%
[2]; Day 1, Trt. Group 4: 10 mg/kg in Dipropylene glycol monomethyl ether/butyl acetate
  % Efficacy against ticks: 71.5%
[2]; Day 1, Trt. Group 5: 10 mg/kg in Diisopropyl adipate
  % Efficacy against ticks: 71.5%
[2]; Day 1, Trt. Group 6: 10 mg/kg in Triacetin
  % Efficacy against ticks: 80.7%
[2]; Day 2, Trt. Group 2: 10 mg/kg in Butyl acetate/octyl acetate
  % Efficacy against ticks: 67.6%
[2]; Day 2, Trt. Group 3: 10 mg/kg in Diethylene glycol monoethyl ether (transcutol)/N-methyl-2-pyrrolidone
  % Efficacy against ticks: 60.8%
[2]; Day 2, Trt. Group 4: 10 mg/kg in Dipropylene glycol monomethyl ether/butyl acetate
  % Efficacy against ticks: 72.0%
[2]; Day 2, Trt. Group 5: 10 mg/kg in Diisopropyl adipate
  % Efficacy against ticks: 86.0%
[2]; Day 2, Trt. Group 6: 10 mg/kg in Triacetin
  % Efficacy against ticks: 79.2%
[2]; Day 9, Trt. Group 2: 10 mg/kg in Butyl acetate/octyl acetate
  % Efficacy against ticks: 88.1%
[2]; Day 9, Trt. Group 3: 10 mg/kg in Diethylene glycol monoethyl ether (transcutol)/N-methyl-2-pyrrolidone
  % Efficacy against ticks: 78.1%
[2]; Day 9, Trt. Group 4: 10 mg/kg in Dipropylene glycol monomethyl ether/butyl acetate
  % Efficacy against ticks: 71.2%
[2]; Day 9, Trt. Group 5: 10 mg/kg in Diisopropyl adipate
  % Efficacy against ticks: 90.4%
[2]; Day 9, Trt. Group 6: 10 mg/kg in Triacetin
  % Efficacy against ticks: 83.1%
[2]; Day 16, Trt. Group 2: 10 mg/kg in Butyl acetate/octyl acetate
  % Efficacy against ticks: 88.7%
[2]; Day 16, Trt. Group 3: 10 mg/kg in Diethylene glycol monoethyl ether (transcutol)/N-methyl-2-pyrrolidone
  % Efficacy against ticks: 81.4%
[2]; Day 16, Trt. Group 4: 10 mg/kg in Dipropylene glycol monomethyl ether/butyl acetate
  % Efficacy against ticks: 90.5%
[2]; Day 16, Trt. Group 5: 10 mg/kg in Diisopropyl adipate
  % Efficacy against ticks: 83.2%
[2]; Day 16, Trt. Group 6: 10 mg/kg in Triacetin
  % Efficacy against ticks: 91.7%
[2]; Day 23, Trt. Group 2: 10 mg/kg in Butyl acetate/octyl acetate
  % Efficacy against ticks: 41.1%
[2]; Day 23, Trt. Group 3: 10 mg/kg in Diethylene glycol monoethyl ether (transcutol)/N-methyl-2-pyrrolidone
  % Efficacy against ticks: 52.2%
[2]; Day 23, Trt. Group 4: 10 mg/kg in Dipropylene glycol monomethyl ether/butyl acetate
  % Efficacy against ticks: 38.4%
[2]; Day 23, Trt. Group 5: 10 mg/kg in Diisopropyl adipate
  % Efficacy against ticks: 20.4%
[2]; Day 23, Trt. Group 6: 10 mg/kg in Triacetin
  % Efficacy against ticks: 89.1%
[2]; Day 30, Trt. Group 2: 10 mg/kg in Butyl acetate/octyl acetate
  % Efficacy against ticks: 64.0%
[2]; Day 30, Trt. Group 3: 10 mg/kg in Diethylene glycol monoethyl ether (transcutol)/N-methyl-2-pyrrolidone
  % Efficacy against ticks: 45.9%
[2]; Day 30, Trt. Group 4: 10 mg/kg in Dipropylene glycol monomethyl ether/butyl acetate
  % Efficacy against ticks: 71.7%
[2]; Day 30, Trt. Group 5: 10 mg/kg in Diisopropyl adipate
  % Efficacy against ticks: 78.2%
[2]; Day 30, Trt. Group 6: 10 mg/kg in Triacetin
  % Efficacy against ticks: 72.3%
[2]; Day 44, Trt. Group 2: 10 mg/kg in Butyl acetate/octyl acetate
  % Efficacy against ticks: −8.6%
[2]; Day 44, Trt. Group 3: 10 mg/kg in Diethylene glycol monoethyl ether (transcutol)/N-methyl-2-pyrrolidone
  % Efficacy against ticks: −10.8%
[2]; Day 44, Trt. Group 4: 10 mg/kg in Dipropylene glycol monomethyl ether/butyl acetate
  % Efficacy against ticks: −29.9%
[2]; Day 44, Trt. Group 5: 10 mg/kg in Diisopropyl adipate
  % Efficacy against ticks: 0.3%
[2]; Day 44, Trt. Group 6: 10 mg/kg in Triacetin
  % Efficacy against ticks: 47.8%
[3]
  stability of Compound 1: good stability
